Tests used:
[1] = system: antibodies in sera from SARS patients (sera 1a, 1b, 2, 6, 37, 62, London, SARS-yellow, SARS-green); format: binding, human; parameters: Binding of serum 6 to linear peptides of protein X1 of SARS-CoV Urbani / Binding of serum 37 to linear peptides of protein X1 of SARS-CoV Urbani / Binding of serum 6 to looped/cyclic peptide (PEPSCAN-ELISA) / Binding of serum 37 to looped/cyclic peptide (PEPSCAN-ELISA) / Binding of serum 37 to looped/cyclic peptides of protein X1 of SARS-CoV Urbani / Binding of serum 6 to linear peptides of protein X2 / Binding of serum 37 to linear peptides of protein X2 / Binding of serum 37 to looped/cyclic peptides of protein X2 of SARS-CoV Urbani / Binding of serum 6 to linear peptides of protein M of SARS-CoV Urbani / Binding of serum 37 to linear peptides of protein M of SARS-CoV Urbani / Binding of serum 6 to looped/cyclic peptides of protein M of SARS-CoV Urbani / Binding of serum 37 to looped/cyclic peptides of protein M of SARS-CoV Urbani / Binding of serum 6 to linear peptides of protein X3 of SARS-CoV Urbani / Binding of serum 37 to linear peptides of protein X3 of SARS-CoV Urbani / Binding of serum 37 to looped/cyclic peptides of protein X3 of SARS-CoV Urbani / Binding of serum 6 to linear peptides of protein X4 of SARS-CoV Urbani / Binding of serum 37 to linear peptides of protein X4 of SARS-CoV Urbani / Binding of serum 37 to looped/cyclic peptides of protein X4 of SARS-CoV Urbani / Binding of serum 6 to linear peptides of protein X5 of SARS-CoV Urbani / Binding of serum 37 to linear peptides of protein X5 of SARS-CoV Urbani / Binding of serum 37 to looped/cyclic peptides of protein X5 of SARS-CoV Urbani / Binding of serum 6 to linear peptides of protein N of SARS-CoV Urbani / Binding of serum 37 to linear peptides of protein N of SARS-CoV Urbani / Binding of serum 6 to linear peptide (PEPSCAN-ELISA) / Binding of serum 1a to looped/cyclic peptides of protein N of SARS-CoV Urbani / Binding of serum 1b to looped/cyclic peptides of protein N of SARS-CoV Urbani / Binding of serum 2 to looped/cyclic peptides of protein N of SARS-CoV Urbani / Binding of serum 6 to looped/cyclic peptides of protein N of SARS-CoV Urbani / Binding of serum 37 to looped/cyclic peptides of protein N of SARS-CoV Urbani / Binding of serum 62 to looped/cyclic peptides of protein N of SARS-CoV Urbani / Binding of serum London to looped/cyclic peptides of protein N of SARS-CoV Urbani / Binding of serum SARS-green to looped/cyclic peptides of protein N of SARS-CoV Urbani: unit not given here
[2] = system: control sera (pooled serum of ten healthy LUMC hospital workers; commercial negative donor pooled serum from the Dutch bloodbank); format: binding, human; parameters: Binding of Control serum LUMC to linear peptides / Binding of Control serum Blood-bank to linear peptides / Binding of Control serum LUMC to looped peptides / Binding of Control Serum Blood-Bank to Looped peptides / Binding of Control serum LUMC to linear peptides of the protein M of SARS-CoV Urbani / Binding of Control serum Blood-bank to linear peptides of the protein M of SARS-CoV Urbani / Binding of Control serum LUMC to looped peptides of the protein M of SARS-CoV Urbani / Binding of Control Serum Blood-Bank to Looped peptides of the protein M of SARS-CoV Urbani: unit not given here
[3] = system: rabbit serum obtained by immunizing a rabbit with the SARS-CoV strain Frankfurt 1; format: binding; parameters: Binding of a rabbit serum to linear peptides / Binding of a rabbit serum to looped peptides / Rabbit serum linear peptides / Rabbit serum looped peptides / Binding of a rabbit serum to linear peptides of protein N of SARS-CoV Urbani (Rabbit serum linear peptides) / Binding of a rabbit serum to looped/cyclic peptides of protein N of SARS-CoV Urbani (Rabbit serum looped peptides): unit not given here

Row | Sequence | Binding of serum 1a to linear peptides of protein M of SARS-CoV Urbani [1] | Binding of serum 1b to linear peptides of protein M of SARS-CoV Urbani [1] | Binding of serum 2 to linear peptides of protein M of SARS-CoV Urbani [1] | Binding of serum 6 to linear peptides of protein M of SARS-CoV Urbani [1] | Binding of serum 37 to linear peptides of protein M of SARS-CoV Urbani [1] | Binding of serum 62 to linear peptides of protein M of SARS-CoV Urbani [1] | Binding of serum London to linear peptides of protein M of SARS-CoV Urbani [1] | Binding of serum SARS-green to linear peptides of protein M of SARS-CoV Urbani [1] | Binding of serum SARS-yellow to linear peptides of protein M of SARS-CoV Urbani [1] | Binding of Control Serum Blood-Bank to Looped peptides of the protein M of SARS-CoV Urbani [2] | Binding of Control serum Blood-bank to linear peptides of the protein M of SARS-CoV Urbani [2] | Binding of Control serum LUMC to linear peptides of the protein M of SARS-CoV Urbani [2] | Binding of Control serum LUMC to looped peptides of the protein M of SARS-CoV Urbani [2] | Rabbit serum linear peptides [3] | Rabbit serum looped peptides [3] | also measured
1 | WLSYFVASFRLFART | 0.6 | 0.5 | 0.4 | 0.4 | 0.4 | 0.4 | 0.3 | 0.4 | 0.1 | 0.6 | 0.7 | 0.6 | 0.8 | 0.2 | 0.4 | Recognition of the peptide by sera of SARS-CoV infected individuals, and form (linear, looped/cyclic) in which it is recognized [1]: recognized in looped/cyclic form
2 | RTRSMWSFNPETNIL | 0.9 | 0.8 | 0.8 | 0.4 | 0.9 | 0.9 | 0.3 | 0.3 | 0.1 | 0.7 | 0.9 | 0.7 | 0.7 | 0.6 | 0.4 | Binding of serum 1a to looped/cyclic peptides of protein M of SARS-CoV Urbani [1]: 0.7; Binding of serum 1b to looped/cyclic peptides of protein M of SARS-CoV Urbani [1]: 0.3; Binding of serum 2 to looped/cyclic peptides of protein M of SARS-CoV Urbani [1]: 0.8; Binding of serum 6 to looped/cyclic peptides of protein M of SARS-CoV Urbani [1]: 0.7; Binding of serum 37 to looped/cyclic peptides of protein M of SARS-CoV Urbani [1]: 0.9; Binding of serum 62 to looped/cyclic peptides of protein M of SARS-CoV Urbani [1]: 0.9; Binding of serum London to looped/cyclic peptides of protein M of SARS-CoV Urbani [1]: 0.2; Binding of serum SARS-green to looped/cyclic peptides of protein M of SARS-CoV Urbani [1]: 0.0; Binding of serum SARS-yellow to looped/cyclic peptides of protein M of SARS-CoV Urbani [1]: 0.7

From US20070128217A1 (priority 2003, published 2007)
